Measured values from patent publication US20060045856A1, “Composition containing a dihydroxyacetone precursor” (priority 2004, published 2006).

Experiments:
[1] = Maillard browning test, tanning test 2 (aqueous test substance reacted with lysine, with or without lipase); settings: room temperature; for Maillard browning colour after reacting with lysine: 0.1M aqueous solution or suspension + 1M Lysine aqueous solution; for Maillard browning colour after reacting with lysine, + 1% lipase: aqueous
Text: (§1) The ability of compounds according to formula I to induce an artificial tanning on the skin can roughly be estimated using a simple Maillard browning test. This visual test is based on the principle that the reaction of skin with DHA to produce an artificial tan proceeds through a complex set of reactions (Maillard reaction) with free amino acids of skin proteins, particularly with arguinine, lysine and histidine.
(§2) The tanning ability of 2,5-dipalmitoyloxymethyl-[1,4]dioxane-2,5-diol (A) is evaluated by means of the Maillard browning effect after reacting with lysine in different solvents (water and the cosmetic oil miglyol) and compared with those of reference compounds: DHA and monomeric DHA-palmitic acid monoester (B) under the same conditions. Besides that, the tanning effect of 2,5-dipalmitoyloxymethyl-[1,4]dioxane-2,5-diol in the presence of lipases (enzymes used by the body to hydrolyse fats) is also studied.

[2] = Maillard browning test, tanning test 1 (test substance in miglyol reacted with lysine); settings: for Maillard browning colour after reacting with lysine: Tanning test 1, 0.1M in miglyol + 1M Lysine aqueous solution, room temperature
Text: as §1, §2

[3] = DHA monomer/dimer content in aqueous solution at elevated temperature; assay type: physicochemical; settings: DHA solutions at 30-50° C.
Text: It is assumed that the improved tanning effect at elevated temperatures in the case of 1,3-dihydroxyacetone is connected with the following mechanism. As a raw material, DHA is in the form of a powder and consists of dimers. Dissolved in water, some of the dimers convert to the active monomeric form, which brings about the tanning reaction. At an elevated water temperature, the amount of monomers increases. […] At the same time, the elevated temperature increases the reaction rate of the tanning reaction. […] It is therefore preferred according to the invention when the solution of the self-tanning substance is heated for about 15 min, but at least about 10 min, before the solution is applied to the human skin.

Structure (SMILES)	Maillard browning colour after reacting with lysine ([1]; 1 h)	Maillard browning colour after reacting with lysine ([2]; 5 h)	Maillard browning colour after reacting with lysine ([2]; 1 day)	Maillard browning colour after reacting with lysine ([2]; 8 days)	More active DHA monomers present than in DHA solutions at 20° C. [3]	Maillard browning colour after reacting with lysine ([1]; 5 h)	Maillard browning colour after reacting with lysine ([1]; 1 day)	Maillard browning colour after reacting with lysine, + 1% lipase ([1]; 1 h)	Maillard browning colour after reacting with lysine, + 1% lipase ([1]; 1 day)	Maillard browning colour after reacting with lysine ([2]; 1 h)	melting point	Maillard browning colour after reacting with lysine ([1]; 2 days)	Ability to undergo Maillard browning reactions ([2]; overall conclusion from tanning tests 1 and 2)
O=C(CO)CO [DHA, 1,3-dihydroxyacetone]	Brown	Light yellow	Brown	Dark brown	up to 30%	–	–	–	–	–	–	–	–
CCCCCCCCCCCCCCCC(=O)OCC(=O)CO [B, monomeric DHA-palmitic acid monoester]	–	Yellow	Brown	Dark brown	–	Yellow	Brown	Yellow	Brown	Light yellow	–	–	–
CCCCCCCCCCCCCCCC(=O)OCC1(O)COC(O)(COC(=O)CCCCCCCCCCCCCCC)CO1 (stereo not shown) [A, 2,5-dipalmitoyloxymethyl-[1,4]dioxane-2,5-diol]	–	Light yellow	Yellow	Brown	–	–	–	–	–	–	95.2 °C	Brown	able to undergo Maillard browning reactions
